The text below walks through data of patent publication US12391679B2, “Benzamide-substituted bicyclic imidazo- and pyrazolo-fused -pyridine, -pyrimide, and -pyridazine compounds for treatment of inflammatory diseases” (ONCO3R Therapeutics BV, priority 2019, dated 2025).

One may read the EC50 as the midpoint of the concentration-response curve.

This experiment has as its system LPS-induced TNFα in monocyte-derived macrophages. In words: MdM assay: LPS-triggered TNFα (ELISA). To be noted: human MdM, LPS 200 ng/mL, supernatant after 20 h, inhibition of TNFα, read-out: TNFα EC50. It counts as cell-based, human. As to the method: This assay evaluates illustrative compounds of the invention for their inhibition of LPS-induced TNFα and LPS triggered IL-10 secretion in monocyte-derived macrophages. PBMCs are isolated from human blood samples (buffycoats). The buffy coat is aseptically transferred into a 50 mL Falcon tube, and diluted 1/2 in PBS. Falcon tubes are filled with 20 mL LymphoprepTM, on top of which 25 mL of the buffy coat is carefully added, tubes are centrifuged for 35 min at 400 g in temperature controlled centrifuge, without brake, at 25° C. PBMCs are aspirated from the white interface layer between sample and LymphoprepTM. PBMCs are washed five times in PBS. […] PBMCs are centrifuged at 300×g for 10 min and resuspended at a density of 1.0*10^7 cells/80 μL Miltenyi buffer (PBS, pH 7.4, 1% FBS, 2 mM EDTA). Starting from this point of the protocol all steps are performed on ice. 20 μL of CD14+ micro-beads are added per 1.0*10^7 cells, the tube is mixed and incubated for 15 min in the fridge at 4° C. Cell suspension volume is adjusted to total volume of 100 mL using Miltenyi buffer, mixed gently and subsequently centrifuged for 10 min at 300×g. Supernatant is discarded and cell pellet is resuspended in 12 mL of Miltenyi buffer. Four LS columns are placed in the MACS Separator (magnet) from Miltenyi Biotec, and are prewet by rinsing with 3 mL of MACS buffer per column. Three mL of cell suspension is added onto the column (max 1*10^8 of labelled cells/column), and columns are subsequently washed 3 times with 3 mL of Miltenyi buffer. The columns are removed from the magnets, and 5 mL of Miltenyi buffer are added to the column to flush out the CD14+ fraction by pushing the plunger into the column. The flushed fractions are collected in a fresh 50 mL Falcon and volume is adjusted to 30 mL using Miltenyi buffer, cells are centrifuged for 10 min at 300×g. The obtained cell pellet is resuspended in 10 mL RPMI w/o FBS, and cell density is determined using a hematologic analyser (Sysmex XS-500i). […] On day 10, MdMs are triggered and compound is added. A compound dilution plate is made in 100% DMSO by 3-fold dilution of 10 mM stock solution. An intermediate dilution plate (10× final concentration) is made by diluting the compound dilution plate […] in RPMI medium. Medium is carefully removed from cell plates using multichannel pipette, and replaced by 80 μL fresh medium. 10 μL of the 10× final concentration compound is added to the cells and incubated for 1 hour at 37° C. before addition of trigger. No trigger conditions/trigger conditions are spiked with equal final DMSO concentrations of 0.2% DMSO. 10 μL of 10×LPS (final conc. 200 ng/mL) solution are added to all wells except for the 'no trigger wells' where 10 μL medium is added. Supernatant is collected after 2 h (IL-10 determination) and after 20 h (TNFα determination) of LPS triggering. […] The plate is then washed once with PBST (PBS+0.05% Tween20) and once with PBS followed by the addition of 100 μL of blocking buffer (1% Bovine Serum Albumin (BSA) -5% Sucrose) and plates are sealed and incubated for at least 4 h at RT. After washing the plate once with PBST and once with PBS, 40 μL of standard or sample are added (TNFα standard curve is prepared using a 1/2 serial dilution starting from 16000 pg/mL; dilutions are made in dilution buffer (PBS+1% BSA)). Plates are washed twice with PBST, and once with PBS, after which 35 μL of the detection antibody is added (final concentration 0.25 μg/mL diluted in dilution buffer) and plates are incubated for at least 2 h at RT. Plates are washed twice with PBST, and once with PBS, where after 35 μL of Strep-HRP conjugate (0.5 μg/mL final concentration diluted in dilution buffer) is added. […] Plates are washed twice with PBST, and once with PBS. Thereafter, 50 μL of luminol substrate is added to each well (prepared according to manufacturer's instructions), and incubated for 5 min at RT protected from light.

Where two headings read alike, the source gives them in different places.

Consider `COC(=O)C1(c2ccn3c(-c4cc(OC)c(C(=O)NC5CC5)c(OC(F)F)c4)cnc3c2)CC1` [Cpd 113, methyl 1-[3-[4-(cyclopropylcarbamoyl)-3-(difluoromethoxy)-5-methoxy-phenyl]imidazo[1,2-a]pyridin-7-yl]cyclopropanecarboxylate], for which the EC50 (Macrophage) lay in the range of 100 to 1000 nM. As to `COc1cc(-c2cnc3cc(C4(O)CCC4)ccn23)cc(OC(F)F)c1C(=O)N[C@@H]1C[C@@H]1F` [Cpd 205, 2-(difluoromethoxy)-N-[(1R,2S)-2-fluorocyclopropyl]-4-[7-(1-hydroxycyclobutyl)imidazo[1,2-a]pyridin-3-yl]-6-methoxy-benzamide], the EC50 (Macrophage) fell in the range of 100 to 1000 nM.

For `COc1cc(-c2cnn3cc(C(C)(C)C#N)cnc23)cc(OC(F)F)c1C(=O)N[C@@H]1C[C@@H]1F` [Cpd 231, 4-[6-(1-cyano-1-methyl-ethyl)pyrazolo[1,5-a]pyrimidin-3-yl]-2-(difluoromethoxy)-N-[(1R,2S)-2-fluorocyclopropyl]-6-methoxy-benzamide], the EC50 (Macrophage) lay within 100 to 1000 nM. On the same count and under the same terms, as for `COc1cc(-c2cnc3cc(C4CCCN(C(=O)OC(C)(C)C)C4)ccn23)cc(OC(F)F)c1C(=O)NC1CC1` (centres unmarked) [Cpd 64, tert-butyl 3-[3-[4-(cyclopropylcarbamoyl)-3-(difluoromethoxy)-5-methoxy-phenyl]imidazo[1,2-a]pyridin-7-yl]piperidine-1-carboxylate], the figure is 100 to 1000 nM.

On to `COCC(C)(C#N)c1ccn2c(-c3cc(OC)c(C(=O)NC4CC4)c(OC(F)F)c3)cnc2c1` (centres unmarked) [Cpd 195, 4-[7-(1-cyano-2-methoxy-1-methyl-ethyl)imidazo[1,2-a]pyridin-3-yl]-N-cyclopropyl-2-(difluoromethoxy)-6-methoxy-benzamide], for which the EC50 (Macrophage) lay in the range of 100 to 1000 nM. On to `COc1cc(-c2cnc3cc([C@@](C)(C#N)CO)ccn23)cc(OC(F)F)c1C(=O)NC1CC1` (single isomer, unassigned) [Cpd 190, 4-[7-(1-cyano-2-hydroxy-1-methyl-ethyl)imidazo[1,2-a]pyridin-3-yl]-N-cyclopropyl-2-(difluoromethoxy)-6-methoxy-benzamide], for which the EC50 fell in the range of 1000 to 5000 nM. With `COc1cc(-c2cnc3cc(C4(C#N)COC4)ccn23)cc(OC(F)F)c1C(=O)NC1CC1` [Cpd 117, 4-[7-(3-cyanooxetan-3-yl)imidazo[1,2-a]pyridin-3-yl]-N-cyclopropyl-2-(difluoromethoxy)-6-methoxy-benzamide], the EC50 (Macrophage) lay in the range of 100 to 1000 nM. On the same count and under the same terms, under `COc1cc(-c2cnc3cc(C4CCCN4C)ccn23)cc(OC(F)F)c1C(=O)NC1CC1` (centres unmarked) [Cpd 171, N-cyclopropyl-2-(difluoromethoxy)-6-methoxy-4-[7-(1-methylpyrrolidin-2-yl)imidazo[1,2-a]pyridin-3-yl]benzamide] stands 1000 to 5000 nM; under `COc1cc(-c2cnc3cc(C(O)CC#N)ccn23)cc(OC(F)F)c1C(=O)NC1CC1` (centres unmarked) [Cpd 175, 4-[7-(2-cyano-1-hydroxy-ethyl)imidazo[1,2-a]pyridin-3-yl]-N-cyclopropyl-2-(difluoromethoxy)-6-methoxy-benzamide], 1000 to 5000 nM. As for `CCC(C)(O)c1ccn2c(-c3cc(OC)c(C(=O)NC4CC4)c(OC(F)F)c3)cnc2c1` (centres unmarked) [Cpd 137, N-cyclopropyl-2-(difluoromethoxy)-4-[7-(1-hydroxy-1-methyl-propyl)imidazo[1,2-a]pyridin-3-yl]-6-methoxy-benzamide], the EC50 (Macrophage) was in the range of 100 to 1000 nM. As to `COc1cc(-c2cnc3cc(C4CCC4)c(F)cn23)cc(OC(F)F)c1C(=O)NC1CC1` [Cpd 168, 4-(7-cyclobutyl-6-fluoro-imidazo[1,2-a]pyridin-3-yl)-N-cyclopropyl-2-(difluoromethoxy)-6-methoxy-benzamide], the EC50 (Macrophage) fell in the range of 100 to 1000 nM. On the same count and under the same terms, under `COc1cc(-c2cnc3cc(C4(C#N)CC4)ccn23)cc(OC(F)F)c1C(=O)NC1CC1` [Cpd 33, 4-[7-(1-cyanocyclopropyl)imidazo[1,2-a]pyridin-3-yl]-N-cyclopropyl-2-(difluoromethoxy)-6-methoxy-benzamide] stands 100 to 1000 nM; under `CCOC(C)(C)c1ccn2c(-c3cc(OC)c(C(=O)NC4CC4)c(OC(F)F)c3)cnc2c1` [Cpd 128, N-cyclopropyl-2-(difluoromethoxy)-4-[7-(1-ethoxy-1-methyl-ethyl)imidazo[1,2-a]pyridin-3-yl]-6-methoxy-benzamide], 100 to 1000 nM; under `COc1cc(-c2cnn3cc(C4(O)CCC4)ccc23)cc(OC(F)F)c1C(=O)N[C@@H]1C[C@@H]1F` [Cpd 266, 2-(difluoromethoxy)-N-[(1R,2S)-2-fluorocyclopropyl]-4-[6-(1-hydroxycyclobutyl)pyrazolo[1,5-a]pyridin-3-yl]-6-methoxy-benzamide], 100 to 1000 nM. On the same count and under the same terms, as for `COc1cc(-c2cnc3cc(C(C)(C)C#N)ccn23)cc(OC(F)F)c1C(=O)NCC(F)F` [Cpd 70, 4-[7-(1-cyano-1-methyl-ethyl)imidazo[1,2-a]pyridin-3-yl]-N-(2,2-difluoroethyl)-2-(difluoromethoxy)-6-methoxy-benzamide], the figure is 100 to 1000 nM; as for `COc1cc(-c2cnc3cc(C(C)(C)CN4CCOCC4)ccn23)cc(OC(F)F)c1C(=O)NC1CC1` [Cpd 160, N-cyclopropyl-2-(difluoromethoxy)-4-[7-(1,1-dimethyl-2-morpholino-ethyl)imidazo[1,2-a]pyridin-3-yl]-6-methoxy-benzamide], 100 to 1000 nM. On the same count and under the same terms, under `COc1cc(-c2cnc3cc(C(C)(C)C#N)ccn23)cc(OC)c1C(=O)NC1CC1` [Cpd 28, 4-[7-(1-cyano-1-methyl-ethyl)imidazo[1,2-a]pyridin-3-yl]-N-cyclopropyl-2,6-dimethoxy-benzamide] stands 100 to 1000 nM; under `COc1cc(-c2cnc3cc(C(C)N4CCCCC4)ccn23)cc(OC(F)F)c1C(=O)NC1CC1` (centres unmarked) [Cpd 146, N-cyclopropyl-2-(difluoromethoxy)-6-methoxy-4-[7-[1-(1-piperidyl)ethyl]imidazo[1,2-a]pyridin-3-yl]benzamide], 1000 to 5000 nM; under `COc1cc(-c2cnn3cc(C4COCCO4)ccc23)cc(OC(F)F)c1C(=O)NC1CC1` (centres unmarked) [Cpd 232, N-cyclopropyl-2-(difluoromethoxy)-4-[6-(1,4-dioxan-2-yl)pyrazolo[1,5-a]pyridin-3-yl]-6-methoxy-benzamide], 100 to 1000 nM. Take `COc1cc(-c2cnc3cc(C4CN(C(C)=O)C4)ccn23)cc(OC(F)F)c1C(=O)NC1CC1` [Cpd 63, 4-[7-(1-acetylazetidin-3-yl)imidazo[1,2-a]pyridin-3-yl]-N-cyclopropyl-2-(difluoromethoxy)-6-methoxy-benzamide]: the EC50 (Macrophage) was 1000 to 5000 nM. Same read-out and setting: as for `COc1cc(-c2cnn3cc(C4(C#N)CCOCC4)ccc23)cc(OC(F)F)c1C(=O)N[C@@H]1C[C@@H]1F` [Cpd 243, 4-[6-(4-cyanotetrahydropyran-4-yl)pyrazolo[1,5-a]pyridin-3-yl]-2-(difluoromethoxy)-N-[(1R,2S)-2-fluorocyclopropyl]-6-methoxy-benzamide], the figure is 100 to 1000 nM; as for `COc1cc(-c2cnn3cc(C4COC4)ccc23)cc(OC(F)F)c1C(=O)N[C@@H]1C[C@@H]1F` [Cpd 218, 2-(difluoromethoxy)-N-[(1R,2S)-2-fluorocyclopropyl]-6-methoxy-4-[6-(oxetan-3-yl)pyrazolo[1,5-a]pyridin-3-yl]benzamide], 100 to 1000 nM; as for `COc1cc(-c2cnn3cc(C(C)(C)C#N)ccc23)cc(OC)c1C(=O)N[C@@H]1C[C@@H]1F` [Cpd 245, 4-[6-(1-cyano-1-methyl-ethyl)pyrazolo[1,5-a]pyridin-3-yl]-N-[(1R,2S)-2-fluorocyclopropyl]-2,6-dimethoxy-benzamide], 100 to 1000 nM.
